Assay results: ChEMBL document CHEMBL1201862, “PubChem BioAssay data set” (2004)
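The compound was tested at five concentrations on cells cultured in 96-well plates, with a 48-hour exposure period. The concentration for 50% growth inhibition is given as GI50.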 Active and inactive are the calls of the source. Rule as the data show it: active = GI50 up to about 1.1 µM and inactive = higher.

Legend:
Assay in all cases: NCI-60 cell line screen, 48 h
[1] = tested on: SK-MEL-2
[2] = tested on: M14
[3] = tested on: SN12C
[4] = tested on: UO-31
[5] = tested on: IGROV-1
[6] = tested on: OVCAR-8
[7] = tested on: UACC-62
[8] = tested on: SNB-19
[9] = tested on: UACC-257
[10] = tested on: HT-29
[11] = tested on: SF-295
[12] = tested on: SNB-75
[13] = tested on: HOP-62
[14] = tested on: SK-OV-3
[15] = tested on: U-251
[16] = tested on: SR
[17] = tested on: NCI-H226
[18] = tested on: LOX IMVI

Row | Compound | GI50 [1] | GI50 [2] | GI50 [3] | GI50 [4] | GI50 [5] | GI50 [6] | GI50 [7] | GI50 [8] | GI50 [9] | GI50 [10] | GI50 [11] | GI50 [12] | GI50 [13] | GI50 [14] | GI50 [15] | GI50 [16] | GI50 [17] | GI50 [18]
1 | NC1=NC2=C(CCCC2)C(c2cccs2)S1 (configuration not stated) | > 100 µM (inactive) | > 100 µM (inactive) | > 100 µM (inactive) | 5.43 µM (inactive) | > 100 µM (inactive) | > 100 µM (inactive) | > 100 µM (inactive) | > 100 µM (inactive) | 49.7 µM (inactive) | > 100 µM (inactive) | > 100 µM (inactive) | > 100 µM (inactive) | > 100 µM (inactive) | > 100 µM (inactive) | > 100 µM (inactive) |  |  | 
2 | O=C1C(=O)N(c2ccc(Cl)cc2Cl)C(=O)C(=O)C1c1nc2ccccc2o1 | > 100 µM (inactive) | > 100 µM (inactive) | > 100 µM (inactive) | > 100 µM (inactive) | > 100 µM (inactive) | > 100 µM (inactive) | > 100 µM (inactive) | > 100 µM (inactive) | > 100 µM (inactive) | > 100 µM (inactive) | > 100 µM (inactive) | > 100 µM (inactive) | > 100 µM (inactive) | > 100 µM (inactive) | > 100 µM (inactive) | > 100 µM (inactive) | > 100 µM (inactive) | 
3 | O=C1c2ccccc2C(=O)N1CCCOCc1cnc(O)nc1O | > 100 µM (inactive) | > 100 µM (inactive) | > 100 µM (inactive) | > 100 µM (inactive) | > 100 µM (inactive) | > 100 µM (inactive) | > 100 µM (inactive) | > 100 µM (inactive) | > 100 µM (inactive) | > 100 µM (inactive) | > 100 µM (inactive) | > 100 µM (inactive) | > 100 µM (inactive) | > 100 µM (inactive) | > 100 µM (inactive) |  | > 100 µM (inactive) | > 100 µM (inactive)
4 | Cc1cc(=O)n2c(cc3cccccc32)n1 | > 100 µM (inactive) | > 100 µM (inactive) | > 100 µM (inactive) | > 100 µM (inactive) | > 100 µM (inactive) | > 100 µM (inactive) | > 100 µM (inactive) | > 100 µM (inactive) | > 100 µM (inactive) | > 100 µM (inactive) | > 100 µM (inactive) | > 100 µM (inactive) | > 100 µM (inactive) |  | > 100 µM (inactive) | > 100 µM (inactive) | > 100 µM (inactive) | > 100 µM (inactive)
5 | NC1=NCCC1(c1ccccc1)c1ccccn1 (configuration not stated) | > 100 µM (inactive) | > 100 µM (inactive) | > 100 µM (inactive) |  | > 100 µM (inactive) | > 100 µM (inactive) | > 100 µM (inactive) | > 100 µM (inactive) | > 100 µM (inactive) | > 100 µM (inactive) | > 100 µM (inactive) | > 100 µM (inactive) | > 100 µM (inactive) | > 100 µM (inactive) | > 100 µM (inactive) |  | > 100 µM (inactive) | 
6 | Cc1cc(NS(=O)(=O)c2ccc(NC(=O)c3cccc4c(Nc5ccc(S(=O)(=O)Nc6cc(C)on6)cc5)c5ccc(Cl)cc5nc34)cc2)no1 | > 100 µM (inactive) | 32.1 µM (inactive) | 51.2 µM (inactive) | 25.3 µM (inactive) | 59.4 µM (inactive) | > 100 µM (inactive) | 35.2 µM (inactive) | 28.1 µM (inactive) | > 100 µM (inactive) | > 100 µM (inactive) | > 100 µM (inactive) | 19.7 µM (inactive) | 61.5 µM (inactive) | > 100 µM (inactive) | 35.5 µM (inactive) |  |  | 53.7 µM (inactive)
7 | COc1ccc([C@@H]2C[C@@H]3C(=O)OC(=O)[C@@H]3c3c2c2ccccc2n3C)cc1 | > 100 µM (inactive) | > 100 µM (inactive) | > 100 µM (inactive) | > 100 µM (inactive) | > 100 µM (inactive) | > 100 µM (inactive) | > 100 µM (inactive) | > 100 µM (inactive) | > 100 µM (inactive) | > 100 µM (inactive) | > 100 µM (inactive) | > 100 µM (inactive) | > 100 µM (inactive) | > 100 µM (inactive) |  | > 100 µM (inactive) | > 100 µM (inactive) | 
8 | CCOC(=O)c1ccc(NC(=O)SCCC(=O)O)cc1 | > 100 µM (inactive) | > 100 µM (inactive) | > 100 µM (inactive) | > 100 µM (inactive) | 35.4 µM (inactive) | 56.4 µM (inactive) | 39.5 µM (inactive) | > 100 µM (inactive) | > 100 µM (inactive) | 52.5 µM (inactive) | > 100 µM (inactive) | < 0.01 µM (active) | > 100 µM (inactive) |  | > 100 µM (inactive) | > 100 µM (inactive) | 3.15 µM (inactive) | 64.3 µM (inactive)
9 | CCCCCCCCCCCCCC/C(C(=O)OC)=C(/O)C(=O)OCC | 16.6 µM (inactive) | 20.2 µM (inactive) | > 100 µM (inactive) | 23.6 µM (inactive) | 30 µM (inactive) | 44.8 µM (inactive) | 16.9 µM (inactive) | 40.9 µM (inactive) | 63.5 µM (inactive) | 36.4 µM (inactive) | 20.6 µM (inactive) | 33 µM (inactive) | 61.2 µM (inactive) | 35.3 µM (inactive) | 26.3 µM (inactive) |  | > 100 µM (inactive) | 17.8 µM (inactive)
10 | Cc1cc([N+](=O)[O-])c(C)c2c1[nH]c1ccc(Cl)cc12 | > 100 µM (inactive) | > 100 µM (inactive) | > 100 µM (inactive) | > 100 µM (inactive) |  | > 100 µM (inactive) |  | > 100 µM (inactive) | > 100 µM (inactive) | 89.5 µM (inactive) | > 100 µM (inactive) | > 100 µM (inactive) | > 100 µM (inactive) |  |  | 45.7 µM (inactive) | > 100 µM (inactive) | > 100 µM (inactive)
11 | Cc1cccc(C)c1NC(=O)C(=O)C(C(=O)c1ccccc1-c1ccccc1)C1OC(=O)c2ccccc21 (configuration not stated) | 16.2 µM (inactive) | 14.7 µM (inactive) |  | 25.3 µM (inactive) | 25.6 µM (inactive) | 29.6 µM (inactive) | 17.4 µM (inactive) |  | 22.6 µM (inactive) | 37.1 µM (inactive) | 31.3 µM (inactive) | 22 µM (inactive) | 16.9 µM (inactive) | 27.6 µM (inactive) | 14.2 µM (inactive) |  | 11.6 µM (inactive) | 19 µM (inactive)
12 | Cc1cccc(NC2=NC(=O)C(CC(=O)Nc3ccc(Cl)cc3C)S2)c1 (configuration not stated) | > 100 µM (inactive) | > 100 µM (inactive) | > 100 µM (inactive) | > 100 µM (inactive) | > 100 µM (inactive) | > 100 µM (inactive) | > 100 µM (inactive) | > 100 µM (inactive) | > 100 µM (inactive) | > 100 µM (inactive) | > 100 µM (inactive) | > 100 µM (inactive) | > 100 µM (inactive) | > 100 µM (inactive) |  |  | > 100 µM (inactive) | > 100 µM (inactive)
13 | CC(C)(C)NC(=O)C12C3C4C1C1C2C3C41I (configuration not stated) | > 100 µM (inactive) |  | > 100 µM (inactive) | > 100 µM (inactive) |  | > 100 µM (inactive) |  | > 100 µM (inactive) | > 100 µM (inactive) | > 100 µM (inactive) | > 100 µM (inactive) |  |  |  | > 100 µM (inactive) | > 100 µM (inactive) | > 100 µM (inactive) | > 100 µM (inactive)
14 | CC1=C(c2cc(C(=O)Nc3ccc(Cl)cc3)nc(S)n2)Sc2ccccc2N1 | > 100 µM (inactive) | > 100 µM (inactive) | > 100 µM (inactive) | > 100 µM (inactive) | > 100 µM (inactive) | > 100 µM (inactive) | > 100 µM (inactive) | > 100 µM (inactive) | > 100 µM (inactive) | > 100 µM (inactive) | > 100 µM (inactive) | > 100 µM (inactive) | > 100 µM (inactive) | > 100 µM (inactive) | > 100 µM (inactive) |  |  | > 100 µM (inactive)
15 | O=C(NCCCN1CCN(CCCNC(=O)Nc2cc(Cl)ccc2Cl)CC1)Nc1cc(Cl)ccc1Cl | > 100 µM (inactive) | 27.4 µM (inactive) | 83 µM (inactive) | > 100 µM (inactive) | > 100 µM (inactive) | 61.8 µM (inactive) | 64.7 µM (inactive) | 46.3 µM (inactive) | 16.5 µM (inactive) | 51.4 µM (inactive) | 49.3 µM (inactive) | 15 µM (inactive) | 52.6 µM (inactive) | 97.9 µM (inactive) | 50.7 µM (inactive) |  | > 100 µM (inactive) | 37 µM (inactive)
16 | CC1=NN(c2ccccc2)C(=O)C1/N=N/c1ccc(Br)c(C)c1 (configuration not stated) | > 100 µM (inactive) | > 100 µM (inactive) | > 100 µM (inactive) |  | > 100 µM (inactive) | > 100 µM (inactive) | > 100 µM (inactive) | > 100 µM (inactive) | > 100 µM (inactive) | > 100 µM (inactive) | > 100 µM (inactive) | > 100 µM (inactive) | > 100 µM (inactive) | > 100 µM (inactive) | > 100 µM (inactive) |  | > 100 µM (inactive) | 
17 | CC[N+](CC)(CC)Cc1cn(S(=O)(=O)c2ccccc2)c2ccccc12 | > 100 µM (inactive) | > 100 µM (inactive) |  | > 100 µM (inactive) | > 100 µM (inactive) | > 100 µM (inactive) | > 100 µM (inactive) | > 100 µM (inactive) | > 100 µM (inactive) | > 100 µM (inactive) | > 100 µM (inactive) | 40.7 µM (inactive) | > 100 µM (inactive) |  | > 100 µM (inactive) | > 100 µM (inactive) | > 100 µM (inactive) | 
